# Measured values taken from patent publication US20240316019A1 (Bayer Aktiengesellschaft, priority 2023, published 2024).
# System: patients with acute non-cardioembolic ischemic stroke
# Details: 50 mg daily
# Method: All participants were required to undergo at least two MRIs that met study requirements. In addition to the baseline MRI (obtained after the index stroke either before randomization or within 72 h after randomization), participants underwent a final study MRI at 26 weeks or as soon as possible after early termination of assigned study treatment. Patients were followed up for at least 26 weeks and up to 52 weeks and assessed for the occurrence of safety, efficacy, and adverse events at 2, 4, 8, 13, 20, 26, 32, 39, 46, and 52 (end of treatment) weeks after randomization, and again 2 weeks after the end of treatment visit. Adherence to assigned therapy was assessed by means of interview and pill count at each clinic visit.
# The primary safety outcome was the composite of major bleeding and clinically relevant non-major bleeding, according to the criteria of the International Society on Thrombosis and Haemostasis (ISTH). […] Additional prespecified exploratory safety outcomes included haemorrhagic transformation within the qualifying stroke detected by baseline MRI performed post-study drug or on follow-up study MRIs based on the Heidelberg classification of severity (haemorrhagic infarct 1 or 2 or parenchymal haematoma 1 or 2). […]
compound,measurement,value
"CC[C@@H](C(=O)Nc1ccc(C(N)=O)c(F)c1)n1cc(OC)c(-c2cc(Cl)ccc2-n2cc(C(F)(F)F)nn2)cc1=O [Compound A, (4S)-2^4-chloro-4-ethyl-7^3-fluoro-3^5-methoxy-3^2,5-dioxo-14-(trifluoromethyl)-3^2H-6-aza-3(4,1)-pyridina-1(1)-[1,2,3]triazola-2(1,2),7(1)-dibenzenaheptaphane-7^4-carboxamide]","Primary intracerebral haemorrhages, % participants",1%
same,"Primary intracerebral haemorrhages, n participants",three
